Patent publication US20070128217A1 (priority 2003, published 2007)

Legend:
[1] = system: control sera (pooled serum of ten healthy LUMC hospital workers; commercial negative donor pooled serum from the Dutch bloodbank); format: binding, human; parameters: Binding of Control serum LUMC to linear peptides / Binding of Control serum Blood-bank to linear peptides / Binding of Control serum LUMC to looped peptides / Binding of Control Serum Blood-Bank to Looped peptides / Binding of Control serum LUMC to linear peptides of the protein M of SARS-CoV Urbani / Binding of Control serum Blood-bank to linear peptides of the protein M of SARS-CoV Urbani / Binding of Control serum LUMC to looped peptides of the protein M of SARS-CoV Urbani / Binding of Control Serum Blood-Bank to Looped peptides of the protein M of SARS-CoV Urbani: unit not given here
[2] = system: antibodies in sera from SARS patients (sera 1a, 1b, 2, 6, 37, 62, London, SARS-yellow, SARS-green); format: binding, human; parameters: Binding of serum 6 to linear peptides of protein X1 of SARS-CoV Urbani / Binding of serum 37 to linear peptides of protein X1 of SARS-CoV Urbani / Binding of serum 6 to looped/cyclic peptide (PEPSCAN-ELISA) / Binding of serum 37 to looped/cyclic peptide (PEPSCAN-ELISA) / Binding of serum 37 to looped/cyclic peptides of protein X1 of SARS-CoV Urbani / Binding of serum 6 to linear peptides of protein X2 / Binding of serum 37 to linear peptides of protein X2 / Binding of serum 37 to looped/cyclic peptides of protein X2 of SARS-CoV Urbani / Binding of serum 6 to linear peptides of protein M of SARS-CoV Urbani / Binding of serum 37 to linear peptides of protein M of SARS-CoV Urbani / Binding of serum 6 to looped/cyclic peptides of protein M of SARS-CoV Urbani / Binding of serum 37 to looped/cyclic peptides of protein M of SARS-CoV Urbani / Binding of serum 6 to linear peptides of protein X3 of SARS-CoV Urbani / Binding of serum 37 to linear peptides of protein X3 of SARS-CoV Urbani / Binding of serum 37 to looped/cyclic peptides of protein X3 of SARS-CoV Urbani / Binding of serum 6 to linear peptides of protein X4 of SARS-CoV Urbani / Binding of serum 37 to linear peptides of protein X4 of SARS-CoV Urbani / Binding of serum 37 to looped/cyclic peptides of protein X4 of SARS-CoV Urbani / Binding of serum 6 to linear peptides of protein X5 of SARS-CoV Urbani / Binding of serum 37 to linear peptides of protein X5 of SARS-CoV Urbani / Binding of serum 37 to looped/cyclic peptides of protein X5 of SARS-CoV Urbani / Binding of serum 6 to linear peptides of protein N of SARS-CoV Urbani / Binding of serum 37 to linear peptides of protein N of SARS-CoV Urbani / Binding of serum 6 to linear peptide (PEPSCAN-ELISA) / Binding of serum 1a to looped/cyclic peptides of protein N of SARS-CoV Urbani / Binding of serum 1b to looped/cyclic peptides of protein N of SARS-CoV Urbani / Binding of serum 2 to looped/cyclic peptides of protein N of SARS-CoV Urbani / Binding of serum 6 to looped/cyclic peptides of protein N of SARS-CoV Urbani / Binding of serum 37 to looped/cyclic peptides of protein N of SARS-CoV Urbani / Binding of serum 62 to looped/cyclic peptides of protein N of SARS-CoV Urbani / Binding of serum London to looped/cyclic peptides of protein N of SARS-CoV Urbani / Binding of serum SARS-green to looped/cyclic peptides of protein N of SARS-CoV Urbani: unit not given here
[3] = system: rabbit serum obtained by immunizing a rabbit with the SARS-CoV strain Frankfurt 1; format: binding; parameters: Binding of a rabbit serum to linear peptides / Binding of a rabbit serum to looped peptides / Rabbit serum linear peptides / Rabbit serum looped peptides / Binding of a rabbit serum to linear peptides of protein N of SARS-CoV Urbani (Rabbit serum linear peptides) / Binding of a rabbit serum to looped/cyclic peptides of protein N of SARS-CoV Urbani (Rabbit serum looped peptides): unit not given here

PKFTTSLSLHKLLQT
Binding of Control Serum Blood-Bank to Looped peptides [1]: 0.7 | Binding of Control serum Blood-bank to linear peptides [1]: 0.7 | Binding of Control serum LUMC to linear peptides [1]: 0.4 | Binding of Control serum LUMC to looped peptides [1]: 0.4 | Binding of serum 1a to linear peptides of protein X2 [2]: 0.6 | Binding of serum 1a to looped/cyclic peptides of protein X2 of SARS-CoV Urbani [2]: 0.5 | Binding of serum 1b to linear peptides of protein X2 [2]: 0.4 | Binding of serum 1b to looped/cyclic peptides of protein X2 of SARS-CoV Urbani [2]: 0.4 | Binding of serum 2 to linear peptides of protein X2 [2]: 0.5 | Binding of serum 2 to looped/cyclic peptides of protein X2 of SARS-CoV Urbani [2]: 0.3 | Binding of serum 6 to linear peptides of protein X2 [2]: 0.3 | Binding of serum 6 to looped/cyclic peptides of protein X2 of SARS-CoV Urbani [2]: 0.3 | Binding of serum 37 to linear peptides of protein X2 [2]: 0.5 | Binding of serum 37 to looped/cyclic peptides of protein X2 of SARS-CoV Urbani [2]: 0.4 | Binding of serum 62 to linear peptides of protein X2 [2]: 0.6 | Binding of serum 62 to looped/cyclic peptides of protein X2 of SARS-CoV Urbani [2]: 0.6 | Binding of serum London to linear peptides of protein X2 [2]: 0.4 | Binding of serum London to looped/cyclic peptides of protein X2 of SARS-CoV Urbani [2]: 0.3 | Binding of serum SARS-green to linear peptides of protein X2 [2]: 0.5 | Binding of serum SARS-green to looped/cyclic peptides of protein X2 of SARS-CoV Urbani [2]: 0.3 | Binding of serum SARS-yellow to linear peptides of protein X2 [2]: 0.3 | Binding of serum SARS-yellow to looped/cyclic peptides of protein X2 of SARS-CoV Urbani [2]: 0.3 | Binding of a rabbit serum to linear peptides [3]: 0.2 | Binding of a rabbit serum to looped peptides [3]: 0.4

PLFLIVAALVFLILC
Binding of Control Serum Blood-Bank to Looped peptides [1]: 0.5 | Binding of Control serum Blood-bank to linear peptides [1]: 0.4 | Binding of Control serum LUMC to linear peptides [1]: 0.4 | Binding of Control serum LUMC to looped peptides [1]: 0.5 | Binding of serum 1a to linear peptides of protein X4 of SARS-CoV Urbani [2]: 0.5 | Binding of serum 1a to looped/cyclic peptides of protein X4 of SARS-CoV Urbani [2]: 0.5 | Binding of serum 1b to linear peptides of protein X4 of SARS-CoV Urbani [2]: 0.4 | Binding of serum 1b to looped/cyclic peptides of protein X4 of SARS-CoV Urbani [2]: 0.1 | Binding of serum 2 to linear peptides of protein X4 of SARS-CoV Urbani [2]: 0.3 | Binding of serum 2 to looped/cyclic peptides of protein X4 of SARS-CoV Urbani [2]: 0.2 | Binding of serum 6 to linear peptides of protein X4 of SARS-CoV Urbani [2]: 0.3 | Binding of serum 6 to looped/cyclic peptides of protein X4 of SARS-CoV Urbani [2]: 0.5 | Binding of serum 37 to linear peptides of protein X4 of SARS-CoV Urbani [2]: 0.6 | Binding of serum 37 to looped/cyclic peptides of protein X4 of SARS-CoV Urbani [2]: 0.0 | Binding of serum 62 to linear peptides of protein X4 of SARS-CoV Urbani [2]: 0.7 | Binding of serum 62 to looped/cyclic peptides of protein X4 of SARS-CoV Urbani [2]: 0.1 | Binding of serum London to linear peptides of protein X4 of SARS-CoV Urbani [2]: 0.6 | Binding of serum London to looped/cyclic peptides of protein X4 of SARS-CoV Urbani [2]: 0.1 | Binding of serum SARS-green to linear peptides of protein X4 of SARS-CoV Urbani [2]: 0.5 | Binding of serum SARS-green to looped/cyclic peptides of protein X4 of SARS-CoV Urbani [2]: 0.2 | Binding of serum SARS-yellow to linear peptides of protein X4 of SARS-CoV Urbani [2]: 0.4 | Binding of serum SARS-yellow to looped/cyclic peptides of protein X4 of SARS-CoV Urbani [2]: 0.1 | Rabbit serum linear peptides [3]: 0.4 | Rabbit serum looped peptides [3]: 0.0

PLMESELVIGAVIIR
Binding of Control Serum Blood-Bank to Looped peptides of the protein M of SARS-CoV Urbani [1]: 0.9 | Binding of Control serum Blood-bank to linear peptides of the protein M of SARS-CoV Urbani [1]: 1.0 | Binding of Control serum LUMC to linear peptides of the protein M of SARS-CoV Urbani [1]: 0.8 | Binding of Control serum LUMC to looped peptides of the protein M of SARS-CoV Urbani [1]: 0.8 | Binding of serum 1a to linear peptides of protein M of SARS-CoV Urbani [2]: 0.7 | Binding of serum 1a to looped/cyclic peptides of protein M of SARS-CoV Urbani [2]: 0.7 | Binding of serum 1b to linear peptides of protein M of SARS-CoV Urbani [2]: 0.6 | Binding of serum 1b to looped/cyclic peptides of protein M of SARS-CoV Urbani [2]: 0.6 | Binding of serum 2 to linear peptides of protein M of SARS-CoV Urbani [2]: 0.7 | Binding of serum 2 to looped/cyclic peptides of protein M of SARS-CoV Urbani [2]: 0.7 | Binding of serum 6 to linear peptides of protein M of SARS-CoV Urbani [2]: 0.4 | Binding of serum 6 to looped/cyclic peptides of protein M of SARS-CoV Urbani [2]: 0.8 | Binding of serum 37 to linear peptides of protein M of SARS-CoV Urbani [2]: 0.7 | Binding of serum 37 to looped/cyclic peptides of protein M of SARS-CoV Urbani [2]: 0.8 | Binding of serum 62 to linear peptides of protein M of SARS-CoV Urbani [2]: 0.5 | Binding of serum 62 to looped/cyclic peptides of protein M of SARS-CoV Urbani [2]: 0.8 | Binding of serum London to linear peptides of protein M of SARS-CoV Urbani [2]: 0.3 | Binding of serum London to looped/cyclic peptides of protein M of SARS-CoV Urbani [2]: 0.2 | Binding of serum SARS-green to linear peptides of protein M of SARS-CoV Urbani [2]: 0.5 | Binding of serum SARS-green to looped/cyclic peptides of protein M of SARS-CoV Urbani [2]: 0.3 | Binding of serum SARS-yellow to linear peptides of protein M of SARS-CoV Urbani [2]: 0.2 | Binding of serum SARS-yellow to looped/cyclic peptides of protein M of SARS-CoV Urbani [2]: 0.7 | Rabbit serum linear peptides [3]: 0.2 | Rabbit serum looped peptides [3]: 0.1

PLRGTIVTRPLMESE
Binding of Control Serum Blood-Bank to Looped peptides of the protein M of SARS-CoV Urbani [1]: 0.5 | Binding of Control serum Blood-bank to linear peptides of the protein M of SARS-CoV Urbani [1]: 0.6 | Binding of Control serum LUMC to linear peptides of the protein M of SARS-CoV Urbani [1]: 0.3 | Binding of Control serum LUMC to looped peptides of the protein M of SARS-CoV Urbani [1]: 0.8 | Binding of serum 1a to linear peptides of protein M of SARS-CoV Urbani [2]: 0.8 | Binding of serum 1b to linear peptides of protein M of SARS-CoV Urbani [2]: 0.7 | Binding of serum 2 to linear peptides of protein M of SARS-CoV Urbani [2]: 0.4 | Binding of serum 6 to linear peptides of protein M of SARS-CoV Urbani [2]: 0.4 | Binding of serum 37 to linear peptides of protein M of SARS-CoV Urbani [2]: 0.8 | Binding of serum 62 to linear peptides of protein M of SARS-CoV Urbani [2]: 0.7 | Binding of serum London to linear peptides of protein M of SARS-CoV Urbani [2]: 0.3 | Binding of serum SARS-green to linear peptides of protein M of SARS-CoV Urbani [2]: 0.5 | Binding of serum SARS-yellow to linear peptides of protein M of SARS-CoV Urbani [2]: 0.0 | Recognition of the peptide by sera of SARS-CoV infected individuals, and form (linear, looped/cyclic) in which it is recognized [2]: recognized in looped/cyclic form | Rabbit serum linear peptides [3]: 0.4 | Rabbit serum looped peptides [3]: 0.4
